Data published in the supplement of paper PMC10307832.

Assays:
Assay in all cases: relative viability (nuclei count vs DMSO), 5 days (fraction); higher = more cells survive
[1] = system: NCI-H650
Method in brief: (§1)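 Medians of duplicate plates are given as relative viability. That measure is the nuclei count in treated wells divided by the count in vehicle wells. Counts were taken on 4× images of lung cancer cell lines in 1536-well plates, 5 days after pin-tool dosing the day after seeding with one drug alone or a fixed anchor-drug dose plus five library-drug doses (not always all listed) in √10 steps.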

[2] = system: EPLC-272H
Method in brief: as §1

[3] = system: NCI-H2087
Method in brief: as §1

[4] = system: NCI-H2085
Method in brief: as §1

[5] = system: LCLC-103H
Method in brief: as §1

[6] = system: CAL-12T
Method in brief: as §1

[7] = system: RERF-LC-KJ
Method in brief: as §1

[8] = system: NCI-H2170
Method in brief: as §1

[9] = system: PC-14
Method in brief: as §1

[10] = system: SK-MES-1
Method in brief: as §1

[11] = system: NCI-H647
Method in brief: as §1

[12] = system: NCI-H1395
Method in brief: as §1

[13] = system: NCI-H3122
Method in brief: as §1

[14] = system: A-427
Method in brief: as §1

[15] = system: NCI-H1651
Method in brief: as §1

[16] = system: COR-L 105
Method in brief: as §1

[17] = system: LXF-289
Method in brief: as §1

[18] = system: NCI-H1975
Method in brief: as §1

[19] = system: NCI-H1993
Method in brief: as §1

[20] = system: NCI-H2023
Method in brief: as §1

[21] = system: HOP-62
Method in brief: as §1

[22] = system: COR-L23
Method in brief: as §1

O=C(O)CCCCC(CCSCc1ccccc1)SCc1ccccc1 (stereo not given) [CPI-613] + CC(=O)c1c(C)c2cnc(Nc3ccc(N4CCNCC4)cn3)nc2n(C2CCCC2)c1=O [Palbociclib] (partner 0.5 µM)
relative viability ([1]; first compound 5 µM): 0.337 | relative viability ([1]; first compound 15.81 µM): 0.312 | relative viability ([1]; first compound 50 µM): 0.306 | relative viability ([1]; first compound 158.11 µM): 0.269 | relative viability ([1]; first compound 500 µM): 0.262 | relative viability ([2]; first compound 5 µM): 0.348 | relative viability ([2]; first compound 15.81 µM): 0.315 | relative viability ([2]; first compound 50 µM): 0.306 | relative viability ([2]; first compound 158.11 µM): 0.316 | relative viability ([2]; first compound 500 µM): 0.259 | relative viability ([3]; first compound 5 µM): 0.253 | relative viability ([3]; first compound 15.81 µM): 0.197 | relative viability ([3]; first compound 50 µM): 0.19 | relative viability ([3]; first compound 158.11 µM): 0.0923 | relative viability ([3]; first compound 500 µM): 0.0098 | relative viability ([4]; first compound 5 µM): 0.447 | relative viability ([4]; first compound 15.81 µM): 0.47 | relative viability ([4]; first compound 50 µM): 0.456 | relative viability ([4]; first compound 158.11 µM): 0.391 | relative viability ([4]; first compound 500 µM): 0.191 | relative viability ([5]; first compound 5 µM): 0.464 | relative viability ([5]; first compound 15.81 µM): 0.456 | relative viability ([5]; first compound 50 µM): 0.455 | relative viability ([5]; first compound 158.11 µM): 0.343 | relative viability ([5]; first compound 500 µM): 0.213 | relative viability ([6]; first compound 5 µM): 0.321 | relative viability ([6]; first compound 15.81 µM): 0.283 | relative viability ([6]; first compound 50 µM): 0.461 | relative viability ([6]; first compound 158.11 µM): 0.0907 | relative viability ([6]; first compound 500 µM): 0.0203 | relative viability ([7]; first compound 5 µM): 1.07 | relative viability ([7]; first compound 15.81 µM): 0.952 | relative viability ([7]; first compound 50 µM): 1.09 | relative viability ([7]; first compound 158.11 µM): 0.615 | relative viability ([7]; first compound 500 µM): 0.571 | relative viability ([8]; first compound 5 µM): 0.379 | relative viability ([8]; first compound 15.81 µM): 0.415 | relative viability ([8]; first compound 50 µM): 0.382 | relative viability ([8]; first compound 158.11 µM): 0.372 | relative viability ([8]; first compound 500 µM): 0.219 | relative viability ([9]; first compound 5 µM): 0.534 | relative viability ([9]; first compound 15.81 µM): 0.54 | relative viability ([9]; first compound 50 µM): 0.49 | relative viability ([9]; first compound 158.11 µM): 0.0565 | relative viability ([9]; first compound 500 µM): 0.0114 | relative viability ([10]; first compound 5 µM): 0.305 | relative viability ([10]; first compound 15.81 µM): 0.279 | relative viability ([10]; first compound 50 µM): 0.277 | relative viability ([10]; first compound 158.11 µM): 0.14 | relative viability ([10]; first compound 500 µM): 0.145 | relative viability ([11]; first compound 5 µM): 0.341 | relative viability ([11]; first compound 15.81 µM): 0.312 | relative viability ([11]; first compound 50 µM): 0.316 | relative viability ([11]; first compound 158.11 µM): 0.022 | relative viability ([11]; first compound 500 µM): 0.0072 | relative viability ([12]; first compound 5 µM): 0.619 | relative viability ([12]; first compound 15.81 µM): 0.641 | relative viability ([12]; first compound 50 µM): 0.601 | relative viability ([12]; first compound 158.11 µM): 0.57 | relative viability ([12]; first compound 500 µM): 0.486 | relative viability ([13]; first compound 5 µM): 0.178 | relative viability ([13]; first compound 15.81 µM): 0.198 | relative viability ([13]; first compound 50 µM): 0.175 | relative viability ([13]; first compound 158.11 µM): 0.155 | relative viability ([13]; first compound 500 µM): 0.145 | relative viability ([14]; first compound 5 µM): 0.519 | relative viability ([14]; first compound 15.81 µM): 0.477 | relative viability ([14]; first compound 50 µM): 0.486 | relative viability ([14]; first compound 158.11 µM): 0.332 | relative viability ([14]; first compound 500 µM): 0.384 | relative viability ([15]; first compound 5 µM): 0.51 | relative viability ([15]; first compound 15.81 µM): 0.466 | relative viability ([15]; first compound 50 µM): 0.487 | relative viability ([15]; first compound 158.11 µM): 0.46 | relative viability ([15]; first compound 500 µM): 0.514 | relative viability ([16]; first compound 5 µM): 0.423 | relative viability ([16]; first compound 15.81 µM): 0.441 | relative viability ([16]; first compound 50 µM): 0.379 | relative viability ([16]; first compound 158.11 µM): 0.294 | relative viability ([16]; first compound 500 µM): 0.26 | relative viability ([17]; first compound 5 µM): 0.561 | relative viability ([17]; first compound 15.81 µM): 0.59 | relative viability ([17]; first compound 50 µM): 0.558 | relative viability ([17]; first compound 158.11 µM): 0.509 | relative viability ([17]; first compound 500 µM): 0.393 | relative viability ([18]; first compound 5 µM): 0.638 | relative viability ([18]; first compound 15.81 µM): 0.645 | relative viability ([18]; first compound 50 µM): 0.388 | relative viability ([18]; first compound 158.11 µM): 0.562 | relative viability ([18]; first compound 500 µM): 0.0655 | relative viability ([19]; first compound 5 µM): 0.611 | relative viability ([19]; first compound 15.81 µM): 0.581 | relative viability ([19]; first compound 50 µM): 0.715 | relative viability ([19]; first compound 158.11 µM): 0.468 | relative viability ([19]; first compound 500 µM): 0.38 | relative viability ([20]; first compound 5 µM): 0.335 | relative viability ([20]; first compound 15.81 µM): 0.323 | relative viability ([20]; first compound 50 µM): 0.35 | relative viability ([20]; first compound 158.11 µM): 0.0317 | relative viability ([20]; first compound 500 µM): 0.0063 | relative viability ([21]; first compound 5 µM): 0.437 | relative viability ([21]; first compound 15.81 µM): 0.45 | relative viability ([21]; first compound 50 µM): 0.427 | relative viability ([21]; first compound 158.11 µM): 0.186 | relative viability ([21]; first compound 500 µM): 0.126 | relative viability ([22]; first compound 5 µM): 0.285 | relative viability ([22]; first compound 15.81 µM): 0.321 | relative viability ([22]; first compound 50 µM): 0.324 | relative viability ([22]; first compound 158.11 µM): 0.11 | relative viability ([22]; first compound 500 µM): 0.0343
